Results published in patent publication US20140322744A1, “CLONABLE TAG FOR CORRELATIVE LIGHT AND ELECTRON MICROSCOPY LABELING” (INSTITUT CURIE, priority 2011, published 2014).

Test system: E. coli K-12
Experiment: Minimal Inhibitory Concentration (MIC) growth test of EuCl3
Type: cell-based
Excerpt: The inventors were first interested in evaluating Eu toxicity in their working conditions. To this purpose, they have submitted E. coli to a serial of growing tests called Minimal Inhibitory Concentration (MIC). This test aimed to determine the lowest concentration able to inhibit the bacteria growth. It consisted in growing bacteria in presence of several concentrations of the tested compound.
Serial dilution series of the substance to be tested were inoculated with bacteria at 0.3 D.O550 nm diluted 1/16000 in culture medium. D.O550 nm was followed until stationary phase. Minimal concentration of the test substance preventing stationary phase was considered as MIC.
For the Eu MIC determination, the inventors have tested EuCl3 concentrations between 100 μM and 2 mM. E. coli K-12 and pBAD arabinose inducible MTtag transformed E. coli K-12 were tested. E. coli K12 were transformed by electroporation with the pBAD plasmid down control of BAD promoter (Guzman, L. M., et al. J Bacteriol 177, 4121-4130 (1995); Khlebnikov, A. & Keasling, J. D. Biotechnol. Prog. 18, 672-674 (2002)). Bacteria pre-cultures were produced at 37° C. in Luria-Bertani (LB) medium with added ampicillin ([…]) in transformed strain. The pre-cultures were used to inoculate tubes of minimum media M9 (with or without ampicillin) until exponential phase D.O550 nm≈0.3. Then, 1/16000 dilutions were prepared in M9 medium (with or without ampicillin). 1 μl of the diluted bacteria were added to 200 μl of M9-EuCl3 at different concentrations in 96 wells plates. Bacterial grow was followed until stationary phase. The D.O550 nm was measured on a Tecan Infinite 200 PRO.

SMILES: [Cl][Eu]([Cl])[Cl] [EuCl3]
- Effect on bacterial growth (E. coli K-12 MG1655 growth curve, several concentrations of Europium (FIG. 1)): doesn't have a dramatic negative effect on bacterial growth
- MIC: EuCl3 concentration until which bacteria is viable (E. coli K-12 and MTtag transformed E. coli K-12, M9 medium, 100 μM to 2 mM tested, repeated 10 times): higher than 2 mM
- Precipitation above maximal concentration tested (M9 medium, maximal concentration tested 2 mM): precipitates at higher concentrations
- EuCl3 concentration after which growing slow down is observed (does not impact bacterial viability): > 1 mM
- Toxicity for E. coli K-12 (transformed or not): not toxic
